Measurements: US12005096B2, “Apoaequorin and vitamin d-containing compositions and methods of using same” (QUINCY BIOSCIENCE, LLC, priority 2016, dated 2024)
Like-named read-outs stand apart in the source and are kept apart here.

Assays:
[1] = test system: rat hippocampal brain slices; assay: Neuroprotection in rat hippocampal brain slices after oxygen glucose deprivation (OGD); type: in vivo; conditions: 5-min OGD; AQ by direct hippocampal injection; vitamin D in diet 0.0125 mg/kg for ~10 days; preliminary results
[2] = not given; remark: listed apart in the source
[3] = not given; remark: listed apart in the source
[4] = apoaequorin 10 mg daily, N=56, eight days to 30 days

Substance | cell death (dead and dying, blue stained cells) after OGD [1] | overall quality of sleep, energy, mood, pain, general health (change from baseline of scores) (32 patients, 90 day period, open-label) | participants discontinued the study due to an adverse event (in vivo) | memory performance (memory screening tool) ([2]; 56 participants, day 8 and day 30) | memory improvement ([2]; apoaequorin 10 mg daily, 56 participants, after 30 days) | participants with improvement in general memory [2, 4] [%] | participants with improvement in remembering driving directions [2, 4] [%] | participants with improvement in retaining information [2, 4] [%] | participants with improvement in word recall [2, 4] [%] | participants discontinued the study due to an adverse event ([2]; in vivo) | participants with an increase in cognitive ability ([3]; 32 patients, 90 days) | cognition (standardized cognitive battery) ([3]; 32 patients, day 8, 30, 60-90) | participants discontinued the study due to an adverse event ([3]; in vivo)
apoaequorin | few er dead and dying cells | increase | No participants discontinued the study due to an adverse event | improved memory performance as early as eight days but with statistically greater improvement at day 30 | statistically significant improvement in memory | 57 | 84 | 51 | 66 | No participants discontinued the study due to an adverse event | Greater than 51% | improved cognition as early as eight days but with statistically greater improvement at day 30, as well as 60-90 | No participants discontinued the study due to an adverse event
vitamin D [reference compound] | fewer dead or dying cells |  |  |  |  |  |  |  |  |  |  |  | 
